Data reported in PubChem BioAssay (NCI).
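Test compounds were applied to cells in 96-well plates for 48 hours at 5 doses. GI50: concentration for 50% inhibition of growth. At the TGI there is no net growth.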

Assays:
Experiment in all cases: NCI anticancer screen, dose series, 48 h
CCRF-CEM leukemia = tested on: CCRF-CEM leukemia
HL-60(TB) leukemia = tested on: HL-60(TB) leukemia
K-562 leukemia = tested on: K-562 leukemia
NCI-H522 lung = tested on: NCI-H522 lung
786-0 renal = tested on: 786-0 renal
A498 renal = tested on: A498 renal
A549 NSCLC = tested on: A549 NSCLC
ACHN renal = tested on: ACHN renal
CAKI-1 renal = tested on: CAKI-1 renal
COLO 205 colon = tested on: COLO 205 colon
DU-145 prostate = tested on: DU-145 prostate
HCC-2998 colon = tested on: HCC-2998 colon
HCT-116 colon = tested on: HCT-116 colon
HCT-15 colon = tested on: HCT-15 colon
HOP-62 NSCLC = tested on: HOP-62 NSCLC
HOP-92 NSCLC = tested on: HOP-92 NSCLC
HS 578T breast = tested on: HS 578T breast
IGROV1 ovarian = tested on: IGROV1 ovarian
KM12 colon = tested on: KM12 colon
LOX IMVI melanoma = tested on: LOX IMVI melanoma
M14 melanoma = tested on: M14 melanoma
MALME-3M melanoma = tested on: MALME-3M melanoma
MCF7 breast = tested on: MCF7 breast
MDA-MB-435 = tested on: MDA-MB-435
MOLT-4 leukemia = tested on: MOLT-4 leukemia
NCI-H226 lung = tested on: NCI-H226 lung
NCI-H23 lung = tested on: NCI-H23 lung
NCI-H460 lung = tested on: NCI-H460 lung
NCI/ADR-RES ovarian = tested on: NCI/ADR-RES ovarian
OVCAR-3 ovarian = tested on: OVCAR-3 ovarian
OVCAR-4 ovarian = tested on: OVCAR-4 ovarian
OVCAR-5 ovarian = tested on: OVCAR-5 ovarian
OVCAR-8 ovarian = tested on: OVCAR-8 ovarian
PC-3 prostate = tested on: PC-3 prostate
RPMI-8226 leukemia = tested on: RPMI-8226 leukemia
RXF 393 renal = tested on: RXF 393 renal
SF-268 CNS = tested on: SF-268 CNS
SF-295 CNS = tested on: SF-295 CNS
SK-MEL-2 melanoma = tested on: SK-MEL-2 melanoma
SK-MEL-28 melanoma = tested on: SK-MEL-28 melanoma
SK-MEL-5 melanoma = tested on: SK-MEL-5 melanoma
SK-OV-3 ovarian = tested on: SK-OV-3 ovarian
SN12C renal = tested on: SN12C renal
SNB-19 CNS = tested on: SNB-19 CNS
SR leukemia = tested on: SR leukemia
T-47D breast = tested on: T-47D breast
TK-10 renal = tested on: TK-10 renal
U251 CNS = tested on: U251 CNS
UACC-62 melanoma = tested on: UACC-62 melanoma
UO-31 renal = tested on: UO-31 renal

Structure (SMILES): CC(C)(Oc1ccc(/C=C/C(=O)c2ccccc2)cc1)C(=O)Nc1c(Cl)cccc1Cl
- TGI (CCRF-CEM leukemia): > 31.6 µM
- TGI (HL-60(TB) leukemia): 23.6 µM
- TGI (K-562 leukemia): > 100 µM
- TGI (NCI-H522 lung): 9.86 µM

Structure (SMILES): CC(=O)OC1COC(Oc2c(C)c3c4c(c2O)[C@@H](C)CC[C@@H]4[C@@H](C)C[C@H]3C=C(C)C)C(O)C1O (some centres not stated)
- GI50 (786-0 renal): 19.2 µM
- TGI (786-0 renal): 43.2 µM
- GI50 (A498 renal): 14.7 µM
- TGI (A498 renal): 30 µM
- GI50 (A549 NSCLC): 16.8 µM
- TGI (A549 NSCLC): 43.7 µM
- GI50 (ACHN renal): 18.5 µM
- TGI (ACHN renal): 36.8 µM
- GI50 (CAKI-1 renal): 16 µM
- TGI (CAKI-1 renal): 30.9 µM
- GI50 (CCRF-CEM leukemia): 11.1 µM
- TGI (CCRF-CEM leukemia): 35.6 µM
- GI50 (COLO 205 colon): 26.4 µM
- TGI (COLO 205 colon): > 100 µM
- GI50 (DU-145 prostate): 13.7 µM
- TGI (DU-145 prostate): 30.7 µM
- GI50 (HCC-2998 colon): 15.1 µM
- TGI (HCC-2998 colon): 31.3 µM
- GI50 (HCT-116 colon): 16.1 µM
- TGI (HCT-116 colon): 41.3 µM
- GI50 (HCT-15 colon): 17.9 µM
- TGI (HCT-15 colon): 37.9 µM
- GI50 (HOP-62 NSCLC): 17.8 µM
- TGI (HOP-62 NSCLC): 34.2 µM
- GI50 (HOP-92 NSCLC): 18.7 µM
- TGI (HOP-92 NSCLC): 36.3 µM
- GI50 (HS 578T breast): > 100 µM
- TGI (HS 578T breast): > 100 µM
- GI50 (IGROV1 ovarian): 20.1 µM
- TGI (IGROV1 ovarian): > 100 µM
- GI50 (K-562 leukemia): 10.3 µM
- TGI (K-562 leukemia): 27.1 µM
- GI50 (KM12 colon): 17.7 µM
- TGI (KM12 colon): 33.8 µM
- GI50 (LOX IMVI melanoma): 19.1 µM
- TGI (LOX IMVI melanoma): 40 µM
- GI50 (M14 melanoma): 13 µM
- TGI (M14 melanoma): 28.6 µM
- GI50 (MALME-3M melanoma): 13.2 µM
- TGI (MALME-3M melanoma): 27.3 µM
- GI50 (MCF7 breast): 20.7 µM
- TGI (MCF7 breast): > 100 µM
- GI50 (MDA-MB-435): 15.4 µM
- TGI (MDA-MB-435): 30.6 µM
- GI50 (MOLT-4 leukemia): 2.24 µM
- TGI (MOLT-4 leukemia): 22.5 µM
- GI50 (NCI-H226 lung): 21.8 µM
- TGI (NCI-H226 lung): 52.3 µM
- GI50 (NCI-H23 lung): 16.6 µM
- TGI (NCI-H23 lung): 33.2 µM
- GI50 (NCI-H460 lung): 16.2 µM
- TGI (NCI-H460 lung): 52.2 µM
- GI50 (NCI-H522 lung): 30.5 µM
- TGI (NCI-H522 lung): > 100 µM
- GI50 (NCI/ADR-RES ovarian): 15.3 µM
- TGI (NCI/ADR-RES ovarian): 31.3 µM
- GI50 (OVCAR-3 ovarian): 16.1 µM
- TGI (OVCAR-3 ovarian): 31.3 µM
- GI50 (OVCAR-4 ovarian): 25.6 µM
- TGI (OVCAR-4 ovarian): 86.5 µM
- GI50 (OVCAR-5 ovarian): 18.1 µM
- TGI (OVCAR-5 ovarian): 37.3 µM
- GI50 (OVCAR-8 ovarian): 20.6 µM
- TGI (OVCAR-8 ovarian): 50.3 µM
- GI50 (PC-3 prostate): 14.4 µM
- TGI (PC-3 prostate): 31.1 µM
- GI50 (RPMI-8226 leukemia): 16.6 µM
- TGI (RPMI-8226 leukemia): 39.5 µM
- GI50 (RXF 393 renal): 19.8 µM
- TGI (RXF 393 renal): 42.3 µM
- GI50 (SF-268 CNS): 15.4 µM
- TGI (SF-268 CNS): 38.5 µM
- GI50 (SF-295 CNS): 17.9 µM
- TGI (SF-295 CNS): 35.3 µM
- GI50 (SK-MEL-2 melanoma): 47.1 µM
- TGI (SK-MEL-2 melanoma): > 100 µM
- GI50 (SK-MEL-28 melanoma): 23.8 µM
- TGI (SK-MEL-28 melanoma): 57.3 µM
- GI50 (SK-MEL-5 melanoma): 16.4 µM
- TGI (SK-MEL-5 melanoma): 34.1 µM
- GI50 (SK-OV-3 ovarian): 20.7 µM
- TGI (SK-OV-3 ovarian): 44 µM
- GI50 (SN12C renal): 20.8 µM
- TGI (SN12C renal): 46.8 µM
- GI50 (SNB-19 CNS): 28.8 µM
- TGI (SNB-19 CNS): 73.7 µM
- GI50 (SR leukemia): 9.13 µM
- TGI (SR leukemia): 25.7 µM
- GI50 (T-47D breast): 33.2 µM
- TGI (T-47D breast): > 100 µM
- GI50 (TK-10 renal): 16.3 µM
- TGI (TK-10 renal): 31 µM
- GI50 (U251 CNS): 19.5 µM
- TGI (U251 CNS): 41.6 µM
- GI50 (UACC-62 melanoma): 18.8 µM
- TGI (UACC-62 melanoma): 39.4 µM
- GI50 (UO-31 renal): 25.1 µM
- TGI (UO-31 renal): > 100 µM
